Reference: ChEMBL document CHEMBL1132499, “NMR-based discovery of phosphotyrosine mimetics that bind to the Lck SH2 domain” (Bioorg Med Chem Lett, 1999)

What follows are molecules tested against Tyrosine-protein kinase Lck (Homo sapiens, UniProt P06239) (assay: Binding affinity against Lck SH2 domain).
Sequence of Tyrosine-protein kinase Lck (P06239 whole entry, the tested form may be a part): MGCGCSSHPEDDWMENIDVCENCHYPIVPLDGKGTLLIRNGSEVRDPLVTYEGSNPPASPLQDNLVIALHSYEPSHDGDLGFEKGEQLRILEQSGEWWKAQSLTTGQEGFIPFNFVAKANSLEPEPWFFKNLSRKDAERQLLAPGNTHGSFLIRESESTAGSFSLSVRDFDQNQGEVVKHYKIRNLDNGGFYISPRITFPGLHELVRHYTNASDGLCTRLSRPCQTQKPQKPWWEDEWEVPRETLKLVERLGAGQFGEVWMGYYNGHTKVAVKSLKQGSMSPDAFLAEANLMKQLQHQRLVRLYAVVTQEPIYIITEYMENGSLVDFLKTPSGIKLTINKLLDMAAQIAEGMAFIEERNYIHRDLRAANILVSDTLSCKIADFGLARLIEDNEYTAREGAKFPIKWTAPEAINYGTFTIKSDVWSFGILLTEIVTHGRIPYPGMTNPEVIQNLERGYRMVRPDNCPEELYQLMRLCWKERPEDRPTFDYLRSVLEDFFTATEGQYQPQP

Row | SMILES | Kd
1 | NC(Cc1ccc(OP(=O)(O)O)cc1)C(=O)O (stereo not given) | 400 µM
2 | O=P(O)(O)c1cccc2ccccc12 | 1500 µM
3 | Cc1ccccc1CP(=O)(O)O | 1000 µM
4 | O=P(O)(O)Cc1ccccc1 [BENZYLPHOSPHONIC ACID] | 5900 µM
5 | O=P(O)(O)Oc1ccccc1 [PHENYL DIHYDROGEN PHOSPHATE] | 300 µM
6 | O=C(O)Cc1ccccc1 [PHENYLACETIC ACID] | > 50000 µM
7 | O=C(O)c1ccccc1C(=O)O [PHTHALIC ACID] | 1700 µM

Further lines, results first:

Row | Kd | SMILES
8 | 200 µM | O=P(O)(O)Oc1cccc2ccccc12
9 | 1600 µM | Cc1nccn1C(=O)c1ccccc1C(=O)O
10 | 1000 µM | O=P(O)(O)Cc1cccc2ccccc12
11 | 200 µM | O=C(O)c1cc(C(=O)O)cc(C(=O)O)c1
12 | 300 µM | CCOC(=O)C(Cc1ccc(OP(=O)(O)O)cc1)NC(C)=O (stereo not given)
13 | 1700 µM | CCCN(CCC)C(=O)c1ccccc1C(=O)O
14 | 1300 µM | O=C(O)c1ccccc1C(=O)n1ccnc1
15 | 60 µM | Cc1cc(C)nc(NC(=O)c2cc(C(=O)O)c(C(=O)Nc3cc(C)cc(C)n3)cc2C(=O)O)c1
